For one assay, the target named is human cathepsin K (UniProt P43236). Put plainly: Cathepsin K Assay (hrbCat K). It is filed as biochemical. The following applies: human cathepsin K 0.4 nM, Z-Leu-Arg-AMC 8 μM, pH 5.5, 15 min preincubation; read-out: hrbCat K IP. A digest of the protocol: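 Human cathepsin K (0.4 nM) in pH 5.5 MES buffer with EDTA, DTT and 10% DMSO was preincubated 15 min at room temperature with compound from a ⅓ dilution series (500-0.025 μM DMSO stocks). Z-Leu-Arg-AMC (8 μM) was then added, and AMC release was followed fluorometrically (Ex 360/Em 460 nm) for 30 min; inhibition was fitted to a dose-response model.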

In the next assay the target is T1, human cathepsin F (Homo sapiens, UniProt Q9UBX1).
T1 sequence (Q9UBX1 271-484): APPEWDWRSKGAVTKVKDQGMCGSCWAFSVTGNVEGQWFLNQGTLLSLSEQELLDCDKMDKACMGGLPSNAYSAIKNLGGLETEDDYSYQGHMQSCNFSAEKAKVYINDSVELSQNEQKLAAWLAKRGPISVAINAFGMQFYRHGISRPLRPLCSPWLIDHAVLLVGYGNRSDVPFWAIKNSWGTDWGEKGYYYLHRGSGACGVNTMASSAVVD
Description: Cathepsin F assay (hCat F). The assay is classed as biochemical. The settings on record: human cathepsin F 10 nM, Z-Phe-Arg-AMC 8 μM, pH 5.5, 15 min preincubation; read-out: hCat F IP. A digest of the protocol:
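Fluorogenic read-out: cleavage of Z-Phe-Arg-AMC (8 μM in added buffer) was followed at Ex 360/Em 460 nm for 20 min, with dose-response fitting of percent inhibition. Before substrate addition, 10 nM human enzyme was incubated 15 min at room temperature with compounds (DMSO stocks 500–0.025 μM) in pH 5.5 MES/EDTA/DTT buffer containing 10% DMSO.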

Structures are written as SMILES.

Regarding `N#CC1(NC(=O)[C@@H]2CC(C(F)F)CC[C@H]2c2oc(-c3ccc(F)cc3)nc2-c2ccc(N3CCS(=O)(=O)CC3)cc2)CC1` (mixture of isomers) [Example 138, (1R,2R,5R and 1R,2R,5S)-N-(1-cyanocyclopropyl)-5-(difluoromethyl)-2-(4-(4-(1,1-dioxidothiomorpholino)phenyl)-2-(4-fluorophenyl)oxazol-5-yl)cyclohexanecarboxamide], the IC50 was determined as 0.0124 µM at human cathepsin K and 0.151 µM at human cathepsin F.
For `N#CC1(NC(=O)[C@@H]2CCCC[C@H]2c2oc(-c3cc(C(F)(F)F)ccn3)nc2-c2ccc(N3CCS(=O)(=O)CC3)cc2)CC1` [Example 83, (1R,2R)-N-(1-cyanocyclopropyl)-2-(4-(4-(1,1-dioxidothiomorpholino)phenyl)-2-(4-(trifluoromethyl)pyridin-2-yl)oxazol-5-yl)cyclohexanecarboxamide], the IC50 on human cathepsin K was determined as 0.0013 µM; at human cathepsin F it was 4.15 µM.
For `CC1(c2nc(-c3ccc(N4CCS(=O)(=O)CC4)cc3)c([C@@H]3CCCC[C@H]3C(=O)NC3(C#N)CC3)o2)CCC(F)(F)CC1` [Example 52, (1R,2R)-N-(1-cyanocyclopropyl)-2-(2-(4,4-difluoro-1-methylcyclohexyl)-4-(4-(1,1-dioxidothiomorpholino)phenyl)oxazol-5-yl)cyclohexanecarboxamide], in that order: 0.00251 µM and 0.82 µM.
For `N#CC1(NC(=O)[C@@H]2CCCC[C@H]2c2oc(-c3ccc(OC(F)(F)F)cc3)nc2-c2ccc(N3CCS(=O)(=O)CC3)cc2)CC1` [Example 61, (1R,2R)-N-(1-cyanocyclopropyl)-2-(4-(4-(1,1-dioxidothiomorpholino)phenyl)-2-(4-(trifluoromethoxy)phenyl)oxazol-5-yl)cyclohexanecarboxamide] the same measures were 0.00136 µM and 0.511 µM.
For `N#C[C@@H](NC(=O)[C@@H]1CCCC[C@H]1c1oc(-c2ccc(F)cc2)nc1-c1ccc(N2CCS(=O)(=O)CC2)cc1)C1CC1` [Example 155, (1R,2R)-N-((S)-cyano(cyclopropyl)methyl)-2-(4-(4-(1,1-dioxidothiomorpholino)phenyl)-2-(4-fluorophenyl)oxazol-5-yl)cyclohexanecarboxamide], in that order: 0.00073 µM and 0.037 µM.
For `Cc1ncc(-c2nc(-c3ccc(N4CCS(=O)(=O)CC4)cc3)c([C@@H]3CCCC[C@H]3C(=O)NC3(C#N)CC3)o2)s1` [Example 73, (1R,2R)-N-(1-cyanocyclopropyl)-2-(4-(4-(1,1-dioxidothiomorpholino)phenyl)-2-(2-methylthiazol-5-yl)oxazol-5-yl)cyclohexanecarboxamide], the values for the IC50 at human cathepsin K and on human cathepsin F were 0.00142 µM and 1.49 µM, respectively.
For `N#CC1(NC(=O)[C@@H]2CCCC[C@H]2c2oc(-c3ccc(F)c(F)c3)nc2-c2ccc(N3CCS(=O)(=O)CC3)cc2)CC1` [Example 1, (1R,2R)—N-(1-Cyanocyclopropyl)-2-(2-(3,4-difluorophenyl)-4-(4-(1,1-dioxidothiomorpholino)phenyl)oxazol-5-yl)cyclohexanecarboxamide], in that order: 0.00039 µM and 0.573 µM.
For `N#C[C@@H](NC(=O)[C@@H]1CCCC[C@H]1c1oc(-c2ccc(F)cc2)nc1-c1ccc(N2CCS(=O)(=O)CC2)cc1)C1CCOCC1` [Example 128, (1R,2R)-N-((S)-cyano(tetrahydro-2H-pyran-4-yl)methyl)-2-(4-(4-(1,1-dioxidothiomorpholino)phenyl)-2-(4-fluorophenyl)oxazol-5-yl)cyclohexanecarboxamide], in that order: 0.00194 µM and 0.692 µM.
For `N#CC1(NC(=O)[C@@H]2C[C@@H](F)CC[C@H]2c2oc(-c3ccc(F)cc3F)nc2-c2ccc(N3CCS(=O)(=O)CC3)cc2)CC1` [Example 41, (1R,2R,5S)-N-(1-cyanocyclopropyl)-2-(2-(2,4-difluorophenyl)-4-(4-(1,1-dioxidothiomorpholino)phenyl)oxazol-5-yl)-5-fluorocyclohexane-carboxamide] the same measures were 0.00141 µM and 2.19 µM.
As to `N#CC1(NC(=O)[C@@H]2CCCC[C@H]2c2oc(C3CC4CCC(C3)C4(F)F)nc2-c2ccc(N3CCS(=O)(=O)CC3)cc2)CC1` (mixture of isomers) [Example 109, (1R,2R)-N-(1-cyanocyclopropyl)-2-(2-((1R,3R,5S and 1R,3S,5S)-8,8-difluorobicyclo[3.2.1]octan-3-yl)-4-(4-(1,1-dioxidothiomorpholino)phenyl)oxazol-5-yl)cyclohexanecarboxamide], the IC50 at human cathepsin K was 0.0017 µM; at human cathepsin F it was 1.5 µM.
For `N#CC1(NC(=O)[C@@H]2CCCC[C@H]2c2oc(-c3cccnc3)nc2-c2ccc(N3CCS(=O)(=O)CC3)cc2)CC1` [Example 29, (1R,2R)-N-(1-cyanocyclopropyl)-2-(4-(4-(1,1-dioxidothiomorpholino)phenyl)-2-(pyridin-3-yl)oxazol-5-yl)cyclohexanecarboxamide], in that order: 0.00048 µM and 0.565 µM.
For `N#CC1(NC(=O)[C@@H]2CCCC[C@H]2c2oc(C3CC4CC4C3)nc2-c2ccc(N3CCS(=O)(=O)CC3)cc2)CC1` (mixture of isomers) [Example 118, (1R,2R)-2-(2-((1R,3R,5S and 1R,3S,5S)-bicyclo[3.1.0]hexan-3-yl)-4-(4-(1,1-dioxidothiomorpholino)phenyl)oxazol-5-yl)-N-(1-cyanocyclopropyl) cyclohexanecarboxamide] the same measures were 0.00085 µM and 0.767 µM.
For `CC(C#N)NC(=O)[C@@H]1CCCC[C@H]1c1oc(-c2ccc(F)cc2)nc1-c1ccc(N2CCS(=O)(=O)CC2)cc1` (single isomer, unassigned) [Example 122, (1R,2R)-N-((S or R)-1-cyanoethyl)-2-(4-(4-(1,1-dioxidothiomorpholino)phenyl)-2-(4-fluorophenyl)oxazol-5-yl)cyclohexanecarboxamide], in that order: 0.0008 µM and 0.198 µM.
`Cc1nc(-c2ccc(C(=O)N3CCOCC3)cc2)c([C@@H]2CCCC[C@H]2C(=O)NC2(C#N)CC2)o1` [Example 22, (1R,2R)-N-(1-cyanocyclopropyl)-2-(2-methyl-4-(4-(morpholine-4-carbonyl)phenyl)oxazol-5-yl)cyclohexanecarboxamide]: the values for the IC50 on human cathepsin K and on human cathepsin F were 0.00509 µM and 6.16 µM, respectively.
Consider `N#CC(NC(=O)[C@@H]1CC(F)(F)CC[C@H]1c1oc(C(F)(F)C(F)(F)F)nc1-c1ccc(C(=O)N2CCOCC2)cc1)C1CCOCC1` (single isomer, unassigned) [Example 145, (1R,2R)-N-((S or R)-cyano(tetrahydro-2H-pyran-4-yl)methyl)-5,5-difluoro-2-(4-(4-(morpholine-4-carbonyl)phenyl)-2-(perfluoroethyl)oxazol-5-yl)cyclohcxanecarboxamide], for which the IC50 was determined as 0.003 µM on human cathepsin K and 1.09 µM at human cathepsin F.
For `N#CC1(NC(=O)[C@@H]2CCCC[C@H]2c2oc(-c3ccccc3Cl)nc2-c2ccc(N3CCS(=O)(=O)CC3)cc2)CC1` [Example 75, (1R,2R)-2-(2-(2-chlorophenyl)-4-(4-(1,1-dioxidothiomorpholino)phenyl)oxazol-5-yl)-N-(1-cyanocyclopropyl) cyclohexanecarboxamide] the same measures were 0.00206 µM and 0.865 µM.

Values taken from patent US9458181B2, “Cathepsin cysteine protease inhibitors” (Merck Sharp & Dohme Corp., priority 2013, dated 2016).
